The results in this text go back to US11578110B2, “Compounds for inducing tissue formation and uses thereof” (HISTIDE AG, priority 2015, dated 2023).

Assay [1] relates to Human Hematopoietic Stem Cells. Nature of the assay: CD-34+ stemness marker expression (immunostaining, ImageJ quantification). It counts as cell-based. As to conditions: peptides grafted on a PET surface; 48 hours.
Another assay concerns hMSCs. Nature of the assay: STRO-1 stemness marker expression in hMSCs (immunostaining, ImageJ quantification). Format: cell-based, Human. The procedure: The cells were first fixed for 20 min with 4% paraformaldehyde/PBS at 4° C. After fixation, the cells were permeabilized in PBS containing 1% Triton X-100 for 15 min. Runx2, Osterix, Stro-1, Vinculin, Phalloidin, Osteopontin, Sox2, Sox9 antibodies were visualized by treating the cells with 1% (v/v) specific monoclonal antibodies for 1 hour at 37° C. Then the samples were incubated with Alexa fluor® 568 or 647 (F(ab′)2 fragment of IgG(H+L)) during 30 min at room temperature. The cell nuclei were counterstained in 20 ng/mL DAPI for 10 min at room temperature.
For this type of quantification the freeware image analysis ImageJ® software was used. The raw image was first converted to an 8-bit file, and then the unsharp mask feature was used (settings 1:0.2) to remove the image background (rolling ball radius 10). After smoothing, the resulting image, which appears similar to the original photomicrograph but with minimal background, was then converted to a binary image by setting a threshold. Threshold values were determined empirically by selecting a setting, which gave the most accurate binary image for a subset of randomly selected photomicrographs. The cell area was determined by manual delineation on raw fluorescent images. Total contact area and mean contact area per cell were calculated by “analyse particles” in ImageJ®. A minimum of 30 cells per condition were analyzed. Stro-1, CD-34+, and CD-105 expressions were determined using this procedure.
hMSCs were cultured on conventional cell culture plastic plates with or without the presence in the cell culture media of different GFR-binding compounds as defined hereins (SEQ ID NO: 50 to 104) in solution. […] This was probed by Stro-1 immunostaining after cell fixation as described in the Methods section. The quantification of Stro-1 positive contact numbers and areas was performed as described in the Methods section. A minimum of 30 cells per condition were analyzed.
RMSD values are always calculated for a GFR-binding peptide sequence exempt from any bioactive-carrier-affinity-containing group as defined herein (e.g. cysteine, WWFWG, GTPGP, etc. . . . ). When needed i.e. when attachment to a bioactive carrier is contemplated, the bioactive-carrier-affinity-containing group is then present in the GFR-binding compound when it is biologically tested. Using the method detailed in the description, the RMSD of 57 previously reported peptide sequences have been determined (Table 6) and correlated with the expression of STRO-1 after grafted on a PET surface via a procedure as already described above. […] One should note that it is commonly admitted that the expression of STRO-1 in a cell is indicative of a cell that is in a substantially non-differentiated state and the decrease of its expression of at least about 20% is indicative of a cell that has started a processes of differentiation but which may not result in the differentiation of the cell. A decrease of more than 50% would be indicative of the presence of a significant shift towards a differentiated state. A decrease of more than 70% would be indicative of the presence of a very important shift towards a differentiated state. A sustained decrease (e.g. for at least 96 h) of more than 50% or 70% would be indicative of the presence of an even more important shift towards a differentiated state.
Likewise, using the method detailed in the description, the RMSD of 87 GFR-binding peptide sequence representatives of the invention have been determined (Table 7) and correlated with the expression of STRO-1 after grafted on a PET surface via a procedure as already described above. SEQ ID NO: 1 to 49 were tested in combination with a bioactive carrier as defined above in the Examples Section (i.e. titanium, ceramics, PEEK, hydrogel, etc. . . . ), whereas SEQ ID NO: 1143 to 1180 were tested in solution.

[2] abbreviates: SEQ ID NO: 1 to 49 tested in combination with a bioactive carrier (titanium, ceramics, PEEK, hydrogel, etc.).
The mark [3] stands for this setting: SEQ ID NO: 1143 to 1180 tested in solution.

No end group written: not given here.

As for “RVPSTSSAPVEESPISTLYI (GFR-binding peptide) [SEQ ID NO: 1076]”, in assay [1], the “CD34+ Expression” value turned out to be 27%.
The same measure, in the same setting: under “RVPSTSSVPQQLNAISTLYF (GFR-binding peptide) [SEQ ID NO: 1074]” stands 32%; under “AASKASSSRVEESATSTLYY (GFR-binding peptide) [SEQ ID NO: 1075]”, 28%.
On the same count and under the same terms, the result for “RVPSTSSVPTDLSSLSILFF (GFR-binding peptide) [SEQ ID NO: 1072]” reads 26%.
With “AASKASSVPAKMRPVQTRKI (GFR-binding peptide) [SEQ ID NO: 1085]”, in assay [1], the “CD34+ Expression” value is listed as 19%.
Still for that read-out and setting: under “AASKASSVPQQLSSLSTLFF (GFR-binding peptide) [SEQ ID NO: 1073]” stands 29%; under “KIPKASSTPTGQSNITMQIM (GFR-binding peptide) [SEQ ID NO: 1082]”, 18%.
As to “AASKASSVPTKMEPISTLYL (GFR-binding peptide) [SEQ ID NO: 1078]”, the “CD34+ Expression” value in assay [1] was determined as 30%.
The same measure, in the same setting: the result for “RVPSTSSTQVRLSPISMLFI (GFR-binding peptide) [SEQ ID NO: 1077]” reads 24%; that for “KIPKASSVPTKMRPVQMRKI (GFR-binding peptide) [SEQ ID NO: 1084]”, 18%.
The same measure, in the same setting: the result for “RVPSTSSVPTELSAISVLYL (GFR-binding peptide) [SEQ ID NO: 1071]” reads 29%.
For the sequence KIPKASSVPTELSATSVLYY [SEQ ID NO: 6], the STRO-1 expression in the assay on hMSCs (setting [2]) was 25%.
For “RVPSTSSVPEKMEPLTMLYY (GFR-binding peptide) [SEQ ID NO: 1173]”, in the assay with hMSCs (setting [3]), the STRO-1 expression is 18%.
Turning to “CVTKPLSSLLFPNWNTTTTPTPP (Previously reported sequence) [SEQ ID NO: 1102, reference compound]”, in the assay with hMSCs (grafted on a PET surface), the STRO-1 expression stood at 92%.
As for ASAAPSSVPAALSPISILYI [SEQ ID NO: 44], the STRO-1 expression in the assay on hMSCs (setting [2]) came to 15%.
“DPLPIIYYVGRNVRVEQLSNMVVRACKCS (Previously reported sequence) [SEQ ID NO: 1089, reference compound]”: the STRO-1 expression in the assay on hMSCs (grafted on a PET surface) was found to be 97%.
Consider “GIPEPSSAPTELSATSILYY (GFR-binding peptide) [SEQ ID NO: 1146]”, for which the STRO-1 expression in the assay on hMSCs (setting [3]) is recorded as 20%.
Same read-out and setting: the result for “STPPTSSAPVGQSPISMLYI (GFR-binding peptide) [SEQ ID NO: 1162]” reads 19%.
With “CPKPSSAPTELSAISMLL (Previously reported sequence) [SEQ ID NO: 1130, reference compound]”, in the assay on hMSCs (grafted on a PET surface), the STRO-1 expression is listed as 79%.
The same measure, in the same setting: under “KGSEYEKLVVSGITQVYQSSLSWHGCKSCCEVQVXNLXILIRLYDVHYYN (not fully specified; X: residue not identified in the source; ends and bridges not checked) [SEQ ID NO: 1122, reference compound]” stands 88%.
Still for that read-out and setting: the result for “KPCCAPTQLSAISVLYFDDSSNVILKKYRNMVVRACGCR (Previously reported sequence) [SEQ ID NO: 1141, reference compound]” reads 80%; that for “TKPLSSLLFPNWNTTTTPTPPRP (Previously reported sequence) [SEQ ID NO: 1101, reference compound]”, 91%.
Consider “AASKASSSRVKMSPINVLYF (GFR-binding peptide) [SEQ ID NO: 1167]”, for which, in the assay with hMSCs (setting [3]), the STRO-1 expression stood at 19%.
The same measure, in the same setting: under “KIPKASSTQVGQSATSILYY (GFR-binding peptide) [SEQ ID NO: 1161]” stands 27%.
GSAGPSSVPTKMSPISVLYK [SEQ ID NO: 8]: the STRO-1 expression with hMSCs (setting [2]) amounted to 31%.
“STPPTSSTPTKMSNITTQIM (GFR-binding peptide) [SEQ ID NO: 1175]”: the STRO-1 expression in the assay on hMSCs (setting [3]) is 27%.
As for GSAGPSSVPTKMSAISMLYL [SEQ ID NO: 1], in the assay with hMSCs (setting [2]), the STRO-1 expression was 21%.
For the sequence “KIPKPSSAPTELSAISMLYC (Previously reported sequence) [SEQ ID NO: 1133, reference compound]”, in the assay on hMSCs (grafted on a PET surface), the STRO-1 expression is recorded as 80%.
In the case of “KIPKASSSRVRLSSLSTLFF (GFR-binding peptide) [SEQ ID NO: 1157]”, the STRO-1 expression in the assay with hMSCs (setting [3]) came out at 20%.
Consider “CKIPKPSSAPTELSAISMLYL (Previously reported sequence) [SEQ ID NO: 1135, reference compound]”, for which the STRO-1 expression with hMSCs (grafted on a PET surface) was 78%.
With “GIPEPSSAPVEEEPLTTLYY (GFR-binding peptide) [SEQ ID NO: 1174]”, in the assay with hMSCs (setting [3]), the STRO-1 expression is on record as 21%.
With “LMDLARMPSCLRGERAVPQDTTGYFTWSSNITPLNFIF (Previously reported sequence) [SEQ ID NO: 1093, reference compound]”, in the assay on hMSCs (grafted on a PET surface), the STRO-1 expression turned out to be 92%.
Same read-out and setting: under “SFRTARANAPTGRSSLSGEKEQQEASTHS (Previously reported sequence) [SEQ ID NO: 1120, reference compound]” stands 91%.
Take “STPPTSSVPTELSPISTLYK (GFR-binding peptide) [SEQ ID NO: 1147]”: in the assay with hMSCs (setting [3]), the STRO-1 expression was 21%.
For the sequence HVTKPTSVPEKLSSLSILFF [SEQ ID NO: 9], the STRO-1 expression in the assay on hMSCs (setting [2]) is listed as 29%.
For “KIPKASSVSQKMEPLTMLYY (GFR-binding peptide) [SEQ ID NO: 1150]”, the STRO-1 expression with hMSCs (setting [3]) was 20%.
For GIPEPSSVPEKMSATSVLYY [SEQ ID NO: 7], the STRO-1 expression in the assay on hMSCs (setting [2]) stood at 22%.
Consider “APTQLSAISVL (Previously reported sequence) [SEQ ID NO: 1127, reference compound]”, for which, in the assay on hMSCs (grafted on a PET surface), the STRO-1 expression turned out to be 93%.
As for NDEGLESVPAEESPISILYI [SEQ ID NO: 45], the STRO-1 expression with hMSCs (SEQ ID NO: 1 to 49 tested in combination with a bioactive carrier (titanium, ceramics, PEEK, hydrogel, etc.), listed as 45) is listed as 16%.
On to NDEGLESAPTGQNAISVLYF [SEQ ID NO: 5], for which the STRO-1 expression in the assay on hMSCs (setting [2]) is given as 27%.
For “TPTYSRPVQKAELTR (Previously reported sequence) [SEQ ID NO: 1091, reference compound]”, in the assay on hMSCs (grafted on a PET surface), the STRO-1 expression was 97%.
As to “GTPGPVPTEESAISMLYL (GFR-binding peptide) [SEQ ID NO: 28]”, the STRO-1 expression in the assay on hMSCs (setting [2]) was 22%.
With “MAAQDEWRDAITLTMGRDLKKVPQHLNAISVIDPVT (Previously reported sequence) [SEQ ID NO: 1124, reference compound]”, in the assay with hMSCs (grafted on a PET surface), the STRO-1 expression is 83%.
On the same count and under the same terms, under “APTKLNAISVLYFDDSSNVILKKYRNMIVKS (Previously reported sequence) [SEQ ID NO: 1126, reference compound]” stands 84%.
The same measure, in the same setting: the result for “CIPKPSSAPTELSAISMLYL (Previously reported sequence) [SEQ ID NO: 1134, reference compound]” reads 83%.
Take “AASKASSVPQRLRSVKVAKV (GFR-binding peptide) [SEQ ID NO: 1177]”: the STRO-1 expression in the assay with hMSCs (setting [3]) is 31%.
On the same count and under the same terms, the result for “KIPKASSTQVRLRSVKTAKV (GFR-binding peptide) [SEQ ID NO: 1178]” reads 35%.
For the sequence “CCAPTQLSAISVLYFDDSSNVILKKYRNMVVRACGCR (Previously reported sequence) [SEQ ID NO: 1140, reference compound]”, the STRO-1 expression in the assay with hMSCs (grafted on a PET surface) is given as 82%.
For the sequence “GIPEPSSAPTRLEPISMLYL (GFR-binding peptide) [SEQ ID NO: 1164]”, the STRO-1 expression in the assay with hMSCs (setting [3]) was 16%.
Take “SSVPAVCSATSATGPYSTATNTVVVFDVYATTVY (SSVPAVCSATSATGPYSTATNTVWFDVYATTVY; Previously reported sequence) [SEQ ID NO: 1117, reference compound]”: in the assay on hMSCs (grafted on a PET surface), the STRO-1 expression turned out to be 91%.
